In assay [1] the target is T1, Recombinant full-length human IDO1 (Homo sapiens, UniProt P14902).
T1 construct: Recombinant full-length human IDO1 with a N-terminal hexahistidine tag; hexahistidine (His6) (N); made in house; host or cells: E. coli
Put plainly: IDO1 enzymatic assay (NFK quantified by LCMS). The class given is biochemical. Conditions: 2 nM enzyme, 5 μM L-tryptophan, pH6.5, 30 minutes pre-incubation at RT; mean values when measured multiple times; read-out: hIDO activity (IC50 in nM). The gist of the method: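 IC50 comes from four-parameter logistic fits of duplicate data, with NFK quantified by LCMS and normalized to L-Trp-(indole-d5). Compound (0.5 nM–10 μM) was preincubated 30 min at RT with 2 nM E. coli-expressed IDO1 before a 30 min reaction with 5 μM tryptophan in pH 6.5 buffer containing ascorbate and methylene blue.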

Assay [2] deals with T2, Recombinant human TDO comprising amino acids 19-407 (Homo sapiens, UniProt P48775).
T2 construct: Recombinant human TDO comprising amino acids 19-407 with a N-terminal hexahistidine tag; hexahistidine (His6) (N); made in house; host or cells: E. coli
T2 sequence (P48775 19-406 limits assumed): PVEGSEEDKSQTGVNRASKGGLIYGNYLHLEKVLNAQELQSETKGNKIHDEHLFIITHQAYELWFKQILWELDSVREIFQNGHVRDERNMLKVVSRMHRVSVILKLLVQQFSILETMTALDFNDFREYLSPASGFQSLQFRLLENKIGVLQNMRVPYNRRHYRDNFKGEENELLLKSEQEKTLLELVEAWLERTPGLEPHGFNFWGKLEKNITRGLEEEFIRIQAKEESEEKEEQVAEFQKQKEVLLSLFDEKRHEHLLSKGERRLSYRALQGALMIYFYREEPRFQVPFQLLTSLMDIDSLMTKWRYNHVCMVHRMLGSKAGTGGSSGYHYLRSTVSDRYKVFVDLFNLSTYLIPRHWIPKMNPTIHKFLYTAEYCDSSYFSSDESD
Put plainly: TDO2 enzymatic assay (NFK quantified by LCMS). The class given is biochemical. As to conditions: 15 nM enzyme, 200 μM L-tryptophan, pH7, 30 minutes pre-incubation at RT; mean values when measured multiple times; read-out: hTDO activity (IC50 in nM). The gist of the method: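 NFK formed over 30 min at RT from 200 μM L-tryptophan was measured by LCMS, normalized to d5-tryptophan, after compound (0.5 nM–10 μM, duplicates, 0.6% DMSO) was preincubated 30 min with 15 nM recombinant His-tagged TDO 19-407 in phosphate buffer pH 7. IC50 from four-parameter logistic fit; repeats averaged.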

A value given as a limit tells only on which side of the number the result lay.

T1 sequence (P14902 whole entry): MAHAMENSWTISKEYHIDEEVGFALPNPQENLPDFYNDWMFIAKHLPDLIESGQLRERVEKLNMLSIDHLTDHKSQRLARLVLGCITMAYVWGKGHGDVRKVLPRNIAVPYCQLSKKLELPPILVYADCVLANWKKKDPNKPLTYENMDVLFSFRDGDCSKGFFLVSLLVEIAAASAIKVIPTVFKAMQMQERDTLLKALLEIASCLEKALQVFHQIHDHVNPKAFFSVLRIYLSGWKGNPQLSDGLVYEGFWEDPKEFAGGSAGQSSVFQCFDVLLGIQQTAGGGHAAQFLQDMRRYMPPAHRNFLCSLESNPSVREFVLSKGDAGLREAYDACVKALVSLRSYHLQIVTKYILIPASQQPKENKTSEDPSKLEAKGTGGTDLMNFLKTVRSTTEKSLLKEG

With `OC(c1cn(-c2ccc(OCC3CCOCC3)cc2)nn1)c1c(C2CC2)sc2cncn12` (racemic) [Example 87, rac-(2-Cyclopropyl-imidazo[5,1-b]thiazol-3-yl)-{1-[4-(tetrahydro-pyran-4-ylmethoxy)-phenyl]-1H-[1,2,3]triazol-4-yl}-methanol], the IC50 in assay [1] is 20.7 nM; in assay [2], more than 10200 nM.

Turning to `OC(c1ccc(-c2cncc3ccccc23)s1)c1c(C2CC2)sc2cncn12` (racemic) [Example 177, rac-(2-Cyclopropyl-imidazo[5,1-b]thiazol-3-yl)-(5-isoquinolin-4-yl-thiophen-2-yl)-methanol], the figures for the concentration for half-maximal inhibition (IC50) in assay [1] and in assay [2] were 138 nM and 8620 nM, respectively.

Turning to `Cc1cc(O)cc(-n2cc(C(O)c3c(C4CC4)sc4cncn34)nn2)c1` (racemic) [Example 220, rac-3-{4-[(2-Cyclopropyl-imidazo[5,1-b]thiazol-3-yl)-hydroxy-methyl]-[1,2,3]triazol-1-yl}-5-methyl-phenol], the figures for the IC50 in assay [1] and in assay [2] were 27.2 nM and more than 10200 nM, respectively.

`C=C(C)c1sc2cncn2c1C(O)c1cn(-c2ccc(OC)cc2)nn1` (racemic) [Example 269, rac-(2-Isopropenyl-imidazo[5,1-b]thiazol-3-yl)-[1-(4-methoxy-phenyl)-1H-[1,2,3]triazol-4-yl]-methanol]: the values for the IC50 in assay [1] and in assay [2] were 7.26 nM and more than 10200 nM, respectively.

For `C=CCNC(=O)c1ccc(-n2cc(C(O)c3c(C4CC4)sc4cncn34)nn2)cc1` (racemic) [Example 193, rac-N-Allyl-4-{4-[(2-cyclopropyl-imidazo[5,1-b]thiazol-3-yl)-hydroxy-methyl]-[1,2,3]triazol-1-yl}-benzamide], the 50% inhibitory concentration (IC50) was 9.02 nM in assay [1] and more than 10200 nM in assay [2].

With `O=C(NCCCO)c1ccc(-n2cc(C(O)c3c(C4CC4)sc4cncn34)nn2)cc1` (racemic) [Example 184, rac-4-{4-[(2-Cyclopropyl-imidazo[5,1-b]thiazol-3-yl)-hydroxy-methyl]-[1,2,3]triazol-1-yl}-N-(3-hydroxy-propyl)-benzamide], the figures for the 50% inhibitory concentration (IC50) in assay [1] and in assay [2] were 14.5 nM and more than 10200 nM, respectively.

On to `CCNC(=O)Nc1ccc(-n2cc(C(O)c3c(CC)sc4cncn34)nn2)cc1OC` (racemic) [Example 113, rac-1-Ethyl-3-(4-{4-[(2-ethyl-imidazo[5,1-b]thiazol-3-yl)-hydroxy-methyl]-[1,2,3]triazol-1-yl}-2-methoxy-phenyl)-urea], for which the concentration for half-maximal inhibition (IC50) in assay [1] is 14.3 nM; in assay [2], 7720 nM.

`NS(=O)(=O)c1ccc(-n2cc(C(O)c3c(C4CC4)sc4cncn34)nn2)cc1` (racemic) [Example 235, rac-4-{4-[(2-Cyclopropyl-imidazo[5,1-b]thiazol-3-yl)-hydroxy-methyl]-[1,2,3]triazol-1-yl}-benzenesulfonamide]: the values for the IC50 in assay [1] and in assay [2] were 24.3 nM and more than 10200 nM, respectively.

For the molecule `CC(C)(O)CCOc1ccc(-n2cc(C(O)c3c(C4CC4)sc4cncn34)nn2)cc1` (racemic) [Example 140, rac-4-(4-{4-[(2-Cyclopropyl-imidazo[5,1-b]thiazol-3-yl)-hydroxy-methyl]-[1,2,3]triazol-1-yl}-phenoxy)-2-methyl-butan-2-ol], the concentration for half-maximal inhibition (IC50) in assay [1] is 8.46 nM; in assay [2], more than 10200 nM.

In the case of `CN(C)CCOc1ccc(-n2cc(C(O)c3c(C4CC4)sc4cncn34)nn2)cc1` (racemic) [Example 204, rac-(2-Cyclopropyl-imidazo[5,1-b]thiazol-3-yl)-{1-[4-(2-dimethylamino-ethoxy)-phenyl]-1H-[1,2,3]triazol-4-yl}-methanol], the IC50 is 292 nM in assay [1] and more than 10200 nM in assay [2].

Regarding `COC(=O)Nc1ccc(-n2cc(C(O)c3c(C4CC4)sc4cncn34)cn2)cc1` (racemic) [Example 132, rac-(4-{4-[(2-Cyclopropyl-imidazo[5,1-b]thiazol-3-yl)-hydroxy-methyl]-pyrazol-1-yl}-phenyl)-carbamic Acid Methyl Ester], the IC50 was 18.2 nM in assay [1] and 1770 nM in assay [2].

In the case of `Cc1sc2cncn2c1C(O)c1cn(-c2ccc(OCC3CC3)cc2)nn1` (racemic) [Example 63, rac-[1-(4-Cyclopropylmethoxy-phenyl)-1H-[1,2,3]triazol-4-yl]-(2-methyl-imidazo[5,1-b]thiazol-3-yl)-methanol], the IC50 in assay [1] was 27.7 nM; in assay [2], more than 10200 nM.

As to `Oc1cccc(Cn2cc(C(O)c3c(C4CC4)sc4cncn34)nn2)c1` (racemic) [Example 298, rac-3-{4-[(2-Cyclopropyl-imidazo[5,1-b]thiazol-3-yl)-hydroxy-methyl]-[1,2,3]triazol-1-ylmethyl}-phenol], the IC50 is 23.3 nM in assay [1] and more than 10200 nM in assay [2].

With `OC(c1cn(-c2ccc3[nH]ncc3c2)nn1)c1c(C2CC2)sc2cncn12` (racemic) [Example 253, rac-(2-Cyclopropyl-imidazo[5,1-b]thiazol-3-yl)-[1-(1H-indazol-5-yl)-1H-[1,2,3]triazol-4-yl]-methanol], the IC50 in assay [1] is 17.2 nM; in assay [2] it was more than 10200 nM.

For `Cc1ccc(-n2cc(C(O)c3c(C4CC4)sc4cncn34)nn2)cc1O` (racemic) [Example 218, rac-5-{4-[(2-Cyclopropyl-imidazo[5,1-b]thiazol-3-yl)-hydroxy-methyl]-[1,2,3]triazol-1-yl}-2-methyl-phenol], the half-inhibitory concentration (IC50) in assay [1] is 24.1 nM; in assay [2], more than 10200 nM.

For `OC(c1cn(-c2ccccc2)nn1)c1c(C(F)(F)F)sc2cncn12` (racemic) [Example 133, rac-(1-Phenyl-1H-[1,2,3]triazol-4-yl)-(2-trifluoromethyl-imidazo[5,1-b]thiazol-3-yl)-methanol], the concentration for half-maximal inhibition (IC50) was 24.2 nM in assay [1] and more than 10200 nM in assay [2].

`COc1cccc(-n2cc(C(O)c3c(C4CC4)sc4cncn34)nn2)c1` (racemic) [Example 8, rac-(2-Cyclopropyl-imidazo[5,1-b]thiazol-3-yl)-[1-(3-methoxy-phenyl)-1H-[1,2,3]triazol-4-yl]-methanol]: the results for the IC50 in assay [1] and in assay [2] were 35.5 nM and more than 10200 nM, respectively.

As for `OC(c1cn(-c2nccc(Br)c2Cl)nn1)c1c(C2CC2)sc2cncn12` (racemic) [Example 200, rac-[1-(4-Bromo-3-chloro-pyridin-2-yl)-1H-[1,2,3]triazol-4-yl]-(2-cyclopropyl-imidazo[5,1-b]thiazol-3-yl)-methanol], the half-maximal inhibitory concentration (IC50) is 55.4 nM in assay [1] and more than 10200 nM in assay [2].

In the case of `COc1ccc(-n2cc(C(O)c3c(C4(C)CC4)sc4cncn34)nn2)cc1` (racemic) [Example 44, rac-[1-(4-Methoxy-phenyl)-1H-[1,2,3]triazol-4-yl]-[2-(1-methyl-cyclopropyl)-imidazo[5,1-b]thiazol-3-yl]-methanol], the IC50 in assay [1] is 38.8 nM; in assay [2] it was more than 10200 nM.

Take `CCOc1ccc(-n2cc(C(O)c3c(CC)sc4cncn34)nn2)cn1` (racemic) [Example 46, rac-[1-(6-Ethoxy-pyridin-3-yl)-1H-[1,2,3]triazol-4-yl]-(2-ethyl-imidazo[5,1-b]thiazol-3-yl)-methanol]: the IC50 in assay [1] is 14.3 nM; in assay [2], more than 10200 nM.

For the molecule `N#Cc1ccccc1-c1ccc(C(O)c2c(C3CC3)sc3cncn23)s1` (racemic) [Example 172, rac-2-{5-[(2-Cyclopropyl-imidazo[5,1-b]thiazol-3-yl)-hydroxy-methyl]-thiophen-2-yl}-benzonitrile], the results for the half-maximal inhibitory concentration (IC50) in assay [1] and in assay [2] were 272 nM and 4080 nM, respectively.

(Values after patent publication US20200405696A1, “INHIBITORS OF INDOLEAMINE 2,3-DIOXYGENASE AND/OR TRYPTOPHAN 2,3-DIOXYGENASE” (IDORSIA PHARMACEUTICALS LTD, priority 2018, published 2020).)
